Experimental data as given in patent US20260114452A1, “ADDITIVES FOR COLOR DRIFT REDUCTION IN COPPER-BASED ANTIMICROBIAL POLYMERIC FORMULATIONS” (CORNING INCORPORATED, priority 2021, published 2026).
Where a name gives a salt, the structure may show the parent alone.

Tests used:
[1] = Color drift of paint dosed with copper-containing material and copper-coordinating additive (CIE a* before/after peroxide); assay type: physicochemical; settings: for a* drift (total drift in color, gap between paint color before and after peroxide testing) / a* endpoint: FIG. 1, Control B paint, Cu:phosphate dibasic 1:0.3 and 1:0.6, other additives 1:0.5 and 1:1; for a* endpoint: after peroxide; for drift in color: FIG. 3, additive neutralized to pH 7 before copper-containing material, 1:1.5 and 1:3 molar ratios; for color drift: 1:1 and 1:3 molar ratios; for color drift / color shift to endpoint / color drift: additive neutralized to pH 7; for color shift to endpoint / color drift: FIG. 10
[2] = test system: bacteria; assay: Antimicrobial efficacy (logarithmic reduction) of paint samples with copper-containing material and copper-coordinating additive; assay type: cell-based; settings: FIG. 12; 50 g of 1:3 molar ratio mixture per gallon of control paint
Text: As used herein, the term “logarithmic reduction” means the negative value of log (Ca/C0), where Ca refers to the colony form unit (“CFU”) number of the antimicrobial surface and C0 refers to the CFU of the control surface that is not an antimicrobial surface. As an example, a 3 logarithmic reduction equals about 99.9% of the microbes killed and a logarithmic reduction of 5 equals about 99.999% of microbes killed. The logarithmic reduction value may be measured according to the ASTM D2574-16 (2016) “Standard Test Method for Resistance of Emulsion Paints in the Container to Attack by Microorganisms.”
The effectiveness of a composition of the present disclosure as a biocidal composition may be measured as a function of the composition's logarithmic reduction. The composition's logarithmic reduction value may be relevant to its ability to kill a wide variety of biological organisms to which the composition is exposed, but may also allow the copper-containing material to act as a preservative for the composition during storage (e.g., in a container such as, but not limited to a tank, a can, a bucket, a drum, a bottle, or a tube). […]

[3] = FIG. 5, Control N paint, 50 g/gallon

Molecule	a* drift (total drift in color, gap between paint color before and after peroxide testing) ([1]; 50 g/gallon)	a* endpoint ([1]; 50 g/gallon)	color shift to endpoint / color drift ([1]; 1:3 molar ratio, 50 g/gallon)	other results
CCCCC(CC)COP(=O)(O)O (centres unmarked) [2EHP, 2-ethylhexylphosphate]	−0.25 to −1	−0.5 to −1	–	drift in color ([1]; 50 g/gallon): reduced significantly; color drift [1, 3]: did not minimize drift; color drift, 1:3 molar ratio relative to 1:1 molar ratio [1, 3]: some reduction in drift
CCON [ethoxyamine hydrochloride]	–	–	accelerated color shift to endpoint, minimizing color drift	impact on antimicrobial efficacy [2]: minimal impact on antimicrobial efficacy
Cl.NO [hydroxylamine hydrochloride]	~0	did not change the endpoint a*	–	drift in color ([1]; 50 g/gallon): reduced significantly; color drift [1, 3]: minimized color drift by accelerating to endpoint quickly; effect on a* / color endpoint (summary of data) ([1]; control paint samples, summary): accelerated color endpoints and reduced color shifts by starting with more negative a* values
COP(=O)(O)O [methyl phosphate]	–	–	accelerated color shift to endpoint, minimizing color drift	impact on antimicrobial efficacy [2]: minimal impact on antimicrobial efficacy
O=P(O)(O)Oc1ccccc1 [phenyl phosphate]	–	–	–	color shift to endpoint ([1]; FIG. 13, 1:3 molar ratio, 50 g/gallon): all copper-coordinating additives except for phenyl phosphate accelerated color shift to endpoint
COP(=O)(OC)OC [trimethyl phosphate]	–	–	accelerated color shift to endpoint, minimizing color drift	–
NC(N)=O [urea]	~−1	did not change the endpoint a*	–	–
phosphate dibasic	−1.75	~−1.5	–	–
